Test results published in patent publication EP0297610A1, “N-[(2,6-disubstituted)phenyl]-urea and carbamate inhibitors of acyl-CoA:cholesterol acyl-transferase” (WARNER-LAMBERT COMPANY, priority 1987, dated 1989).

Assays:
male Sprague-Dawley rats = experiment: In vivo screen PCC: total blood cholesterol in cholesterol-fed rats; conditions: one week; for % Change: change of total blood cholesterol vs control (181 mg/dl), 0.05% test drug in diet, rats; for Total Blood Cholesterol: male Sprague-Dawley rats, 0.05% test drug admixed into diet with 5.5% peanut oil, 1.5% cholesterol, 0.3%-0.5% cholic acid, Control = 181
From the text: In an in vivo screen, designated PCC, male Sprague-Dawley rats (approximately 200 g body weight) are randomly divided into groups and provided ad libidum a regular chow diet (Purina No. 5002, Ralston Purina Co., 711 West Fuesser Road, Mascoutah, Illinois, 62224, USA), supplemented with 5.5% peanut oil, 1.5% choles-terol, and 0.3%-0.5% cholic acid, together with 0.05% of the test drug which is admixed into the diet. After one week the animals are etherized and a blood sample is taken from the heart and mixed with 0.14% ethylene-diamine tetraacetic acid (EDTA) to measure the total cholesterol.

[1] = biological target: acyl-CoA:cholesterol acyltransferase (ACAT); experiment: In vitro ACAT inhibition: formation of radiolabeled cholesterol oleate from radiolabeled oleic acid in rabbit intestinal microsomes; assay type: biochemical; conditions: tissue preparation containing rabbit intestinal microsomes, read-out: IC₅₀
From the text: The test assesses the ability of a test compound to inhibit the acylation of cholesterol by oleic acid by measuring the amount of radiolabeled cholesterol oleate formed from radiolabeled oleic acid in a tissue preparation containing rabbit intestinal microsomes.

| SMILES | % Change (male Sprague-Dawley rats) | Total Blood Cholesterol (male Sprague-Dawley rats) | IC50 [1] |
| --- | --- | --- | --- |
| CCCCCCCCCCCCCCNC(=O)Nc1c(CC)cccc1C(C)C [Example 1, N-[2-Ethyl-6-(1-methylethyl)-phenyl]-N′-tetradecylurea] | -41% | 106 (Control = 181) mg/dl | 19 nM |
| CCCCCCCC/C=C\CCCCCCCCNC(=O)Nc1c(CC)cccc1C(C)C [Example 2, (Z)-N-[2-Ethyl-6-(1-methylethyl)-phenyl]-N′-9-octadecenylurea] | -41% | 107 (Control = 181) mg/dl | 37 nM |
| CCCCCCCC/C=C\CCCCCCCCNC(=S)Nc1c(C)cccc1C [Example 3, (Z)-N-(2,6-Dimethylphenyl)-N′-9-octadecenylthiourea] |  |  | 10000 nM |
| CCCCCCCC/C=C\CCCCCCCCNC(=O)Nc1c(C)cccc1C [Example 4, (Z)-N-(2,6-Dimethylphenyl)-N′-9-octadecenylurea] |  |  | 160 nM |
| CCCCCCCC/C=C\CCCCCCCCNC(=O)Nc1c(C)cccc1Cl [Example 5, (Z)-N-(2-Chloro-6-methylphenyl)-N′-9-octadecenylurea] |  |  | 180 nM |
| CCCCCCCC/C=C\CCCCCCCCNC(=O)Nc1c(Cl)cccc1Cl [Example 6, (Z)-N-(2,6-Dichlorophenyl)-N′-9-octadecenylurea] |  |  | 400 nM |
| CCCCCCCCCCCCCCNC(=O)Nc1c(C)cccc1Cl [Example 7, N-(2-Chloro-6-methylphenyl)-N′-tetradecylurea] |  |  | 27 nM |
| CCCCCCCCCCCCCCNC(=O)Nc1c(CC)cccc1CC [Example 8, N-(2,6-Diethylphenyl)-N′-tetra-decylurea] |  |  | 21 nM |
| CCCCCCCCCCCCCCCCCCNC(=O)Nc1c(C)cccc1Cl [Example 10, N-(2-Chloro-6-methylphenyl)-N′-octadecylurea] |  |  | 1100 nM |
| CCCCCCCCCCCCCCCCCCNC(=O)Nc1c(C(C)C)cccc1C(C)C [Example 11, N-[2,6-bis(1-Methylethyl)phenyl]-N′-octadecylurea] |  |  | 48 nM |
| CCCCCCCCCCCCCCNC(=S)Nc1c(CC)cccc1CC [Example 12, N-(2,6-Diethylphenyl)-N′-tetradecylthiourea] |  |  | 420 nM |
| CCCCCCCCCCNC(=O)Nc1c(C(C)C)cccc1C(C)C [Example 15, N-[2,6-bis(1-Methylethyl)phenyl]-N′-decylurea] |  |  | 56 nM |
| CCCCCCCCCCNC(=O)Nc1c(C)cccc1C(C)C [Example 17, N-Decyl-N′-[2-methyl-6-(l-methylethyl)-phenyl]urea.] |  |  | 210 nM |
| CCCCCCCCCCNC(=O)Nc1c(C)cccc1C(C)(C)C [Example 18, N-Decyl-N′-[2-(1,1-dimethylethyl)-6-methylphenyl]urea] |  |  | 200 nM |
| CCCCCCCCCCC(C)(C)NC(=O)Nc1c(CC)cccc1CC [Example 19, N-(2,6-Diethylphenyl)-N′-(1.1-dimethylundecyl)urea] | -60% | 73 (Control = 181) mg/dl | 52 nM |
| CCCCCCCCCCC(C)(C)NC(=O)Nc1c(C(C)C)cccc1C(C)C [Example 20, N-[2.6-bis(1-Methylethyl)phenyl]-N′-(1,1-dimethylundecyl)urea] |  |  | 45 nM |
| CCCCCCCCCCC1(NC(=O)Nc2c(CC)cccc2CC)CCCC1 [Example 21, N-(1-Decylcyclopentyl)-N′-(2.6-diethylphenyl)urea] |  |  | 100 nM |
